Experimental data published in a melting point compilation (Tetko et al.; mined from patent text by program, amines drawn as free bases though some values may be those of a salt).

Compound | melting point [°C]
O=C(Nc1cccnc1)N1CCN(c2cc(-c3ccc(F)cc3F)ncn2)CC1 | 171 to 172
COc1ccc(C(C)=Cc2ccncc2)c2c1OC(C)(C)C2 | 85 to 87
CCCCCCCCCCCCCCC(=O)C(=O)N[C@@H](CCCC)C(=O)NCC(=O)OC(C)(C)C | 38 to 39
CCCc1ncc(C(=O)OCC)c(NCc2ccc(-c3ccccc3-c3nnn[nH]3)cc2)n1 | 146 to 147
CCOC(=O)c1ncn2c1CN(Cc1ccc(OC)cc1OC)C(=O)c1ccccc1-2 | 136 to 138
CCc1cc(CC(=O)O)n(C)c1C(=O)c1ccc(Cl)cc1 | 129 to 131
Clc1cc2c(cc1Br)C(=C1CCNCC1)c1ncccc1CO2 | 198 to 199
c1ccc2c(c1)ncc1cncn12 | 175 to 179
CCOC(=O)C(=CNC1CC1)C(=O)c1cc(F)c(-n2cccc2)cc1F | 90 to 92
CC(C)(C)OC(=O)N1C[C@@H](P(C2CCCCC2)C2CCCCC2)C[C@H]1CP(c1ccccc1)c1ccccc1 | 171 to 174
O=S(=O)(NCc1ccc(Cl)cc1)c1c[nH]cn1 | 196 to 198
C[C@H](c1ccccc1)n1c(=O)c2c(N3CCN(C)CC3)cc(Cl)cc2n(Cc2ccccc2)c1=O | 108 to 115
COc1ccc(-c2cncc(C#N)c2Nc2ccc3[nH]ccc3c2)cc1Br | 148 to 150
COC(=O)CC1CCN(C(=O)c2cnc(-c3ccc(C(=N)NC(=O)OC)cc3)nc2OC)CC1 | 193 to 195
CC(C)C(=O)N[C@H]1CC[C@H](CCN2CCN(c3nccc4c3CCO4)CC2)CC1 | 219
FCc1nc(C#CCCc2cn3cc(F)ccc3n2)cs1 | 82 to 84
CCOC(=O)CON(C(=S)Nc1cc(Cl)ccc1C)C(C)C | 83 to 85
C#CCSc1nc[nH]n1 | 102 to 104
NC(=O)C1(CCCNC2CC2)c2ccccc2-c2ccccc21 | 163 to 165
Cc1cc(Cn2c(-c3ccccc3)nc(Cl)c2CO)ccc1OCc1ccccc1 | 184 to 186
ClCc1ccc2c(c1)Nc1nccnc1S2 | 161 to 162
CCOC(=O)C1=C(COCCNc2nc(C(C)=O)c[nH]2)NC(C)=C(C(=O)OC)C1c1cccc(Cl)c1Cl (stereo not given) | 177
COc1ccc(N2C(=O)N(c3cccc(C#N)c3)c3nc(Nc4cccc(CCOC(C)=O)c4)ncc3C2C)cc1 (stereo not given) | 170 to 172
CO/C=C(/C(=O)OC)c1ccccc1COc1cccc(Br)n1 | 64 to 65
C=CCOc1cc2c(cc1C)OC1(CC(C)(C)c3cc(O)c(C)cc3O1)CC2(C)C (stereo not given) | 143 to 144

Compound | melting point [°C]
C=CCNc1nc(NCC)c2scc(C)c2n1 | 96 to 97
CC(C)C1NS(=O)(=O)N(CCl)C1=O (stereo not given) | 71 to 72
CCOC(=O)c1cnc2c(F)c(Br)c(F)cc2c1O | 285
CC(C)(C)c1noc(-c2cnc(Cl)c(Cl)c2)n1 | 98 to 101
CCC(c1ccc(Cl)nc1)N(Cc1ccc(C(=O)O)cc1)S(=O)(=O)c1ccc(Cl)cc1 (stereo not given) | 111 to 113
COC(=O)c1cccc(-c2ncc(OCCCN(C)C)cn2)c1 | 66
CCOP(=O)(OCC)N1CCN(c2cc3c(cc2F)c(=O)c(C(=O)OCCOC)cn3C2CC2)CC1 | 138 to 141
Cc1ccc2c3c(ccc2n1)OC[C@H](CN1CCN(c2ccc4cc(Br)ccc4n2)CC1)O3 | 153 to 154
CCOC(=O)c1ncc2[nH]c3c([N+](=O)[O-])cccc3c2n1 | 318 to 325
CN(Cc1cc(C(F)(F)F)cc(C(F)(F)F)c1)C(=O)c1nc(N2CCOCC2)ncc1-c1ccccc1 | 154 to 155
O=C1c2cc([N+](=O)[O-])ccc2OCCC1Br (stereo not given) | 115 to 118
CCc1nc2c(N)nc3c(c2n1CCOCCS(C)(=O)=O)CCCC3 | 146 to 148
C=Cc1ccc(S(=O)(=O)NS(=O)(=O)c2ccccc2)cc1 | 145 to 147
COC(=O)c1ccc(CC(C#N)(c2ccccc2Cl)N2CCOCC2)cc1 (stereo not given) | 116 to 118
CCc1cc(C#N)c(=O)[nH]c1COCc1ccccc1 | 141 to 143
CCC(CC)Nc1cc(-c2c(-c3cccc(C)c3)nc3cccnn23)ccn1 | 155 to 156
O=C(NCCO[N+](=O)[O-])c1ccc(C2NC(C(=O)O)CS2)cc1 (stereo not given) | 128 to 130
FC(F)(F)c1cc(Br)c(C(F)(F)F)cc1Br | 64 to 65
O=[N+]([O-])c1ccccc1OC[C@@H](O)CNCCc1ccc(Cl)c(Cl)c1 | 73 to 74
O=c1c2cccnc2c(-c2cccc([N+](=O)[O-])c2)nn1Cc1ccccc1 | 132
Cc1cc(C)c(Nc2nc(C)ccc2S(=O)(=O)c2ccc(OCc3csc(C)n3)cc2)c(C)c1 | 200 to 201
CN(C)C(=NS(=O)(=O)c1ccc(Cl)cc1)N1CC(c2ccccc2)C(c2ccc(Cl)cc2)=N1 (stereo not given) | 182
CCN(CC)C(=O)c1cc(-c2ccccc2)c2ccccc2c1 | 123 to 124
N=C1c2c(F)cccc2S(=O)(=O)N1CC1CC1 | 90 to 93
O=C(O)c1ccc2sc3ccccc3c(=O)c2c1 | 310 to 316

Compound | melting point [°C]
CC(C)(C)OC(=O)C=Cc1ccc(NC(=O)C=C2CC(C(=O)O)Nc3ccccc32)cc1 (racemic) | 140
N#CNc1ccccc1-c1ccc(F)cc1 | 95 to 96
CC(=O)NCCCC(C)C1CC=C2C3=C(CCC21C)C1(C)CCC(O)C(C)(C)C1CC3 (stereo not given) | 219 to 221
C=C1COc2ccc(C(=O)OC)cc2C(Cc2ccccc2)(S(=O)(=O)c2ccccc2)C1 (stereo not given) | 164 to 165
CC1(C)CC(OC(=O)c2ccccc2)CC(C)(C)N1O | 145 to 149
O=C1CC(c2ccccc2)=Nc2ccccc2N1Cc1ccccc1 | 122 to 123
N#Cc1cccc(OS(N)(=O)=O)c1 | 101 to 104
COc1cc(OC)c2c(=O)[nH]c(-c3ccc(OCCNC(C)C)c(-c4ccccc4S(C)(=O)=O)n3)nc2c1 | 178 to 180
O=C(O)c1cnc(Cn2cc(C3c4ccccc4C=Cc4ccccc43)c(=S)[nH]c2=O)s1 | 198 to 200
C/C(NC1CCCCCC1)=C(\C#N)C(N)=S | 132 to 134
CN(C)C(=O)c1cc(N)cc(C(F)(F)F)c1 | 154
O=S(=O)(c1ccc(Cl)cc1)C1(c2cccnc2Cl)CCCCC1 | 129 to 131
COc1ccc2[nH]c(C(=O)OC(C)(C)C)c(N)c2c1 | 146 to 147
O=C(NCCO)c1cccc(-c2ccc3ccn(-c4ccc(Cl)cc4Cl)c3c2)c1 | 163 to 164
Cc1nc2c(C#N)cnn2c(Cl)c1CCCl | 143 to 145
O=c1cnn(-c2ccc(Cl)c(C(c3ccc(Cl)cc3)c3nc(-c4ccccc4)c(CNC(=S)Nc4ccccc4)s3)c2Cl)c(=O)[nH]1 (stereo not given) | 159
O=[N+]([O-])c1cnc(Sc2cnccn2)s1 | 129 to 130
COC(=O)C1C=CCn2c(=O)[nH]c(=O)n21 (stereo not given) | 210 to 213
CC(=O)SCC(=O)c1ccc(Cl)c(S(N)(=O)=O)c1 | 137
NCC(O)C1=CC2(CCCC2)c2ccccc21 (stereo not given) | 76 to 78
Clc1cccc(Cl)c1CSCc1c(Cl)cccc1Cl | 128 to 130
CCCCOc1cc(C(=O)O)cc(S(N)(=O)=O)c1Cc1ccccc1 | 228 to 229
Cc1ccc(Nc2ccccc2NC(=O)CCCc2ccc(N=C(N)c3cccs3)cc2)cc1 | 66 to 68
NC(=O)c1cc(-c2ccc(Cl)cc2)on1 | 224 to 225
COC(=O)[C@@H](CC(C)C)NC(=O)c1ccc2c(c1)OCO2 | 89 to 90

Compound | melting point [°C]
CCCCCCCCCCCCCCc1ccc(O)c(C(=O)CCCCC)c1 | 41 to 42
CSC(=S)N(C)N=Cc1ccco1 | 103
CCCOCCOC(=O)C1=C(C)NN=C(CC)C1c1cccc([N+](=O)[O-])c1 (stereo not given) | 76
COCCN(CCOC)CCc1ccc(Nc2ncc3c(n2)-c2ccccc2C(c2cccc(Br)c2)C3)cc1 (stereo not given) | 58 to 60
CCCCC(Oc1c(Br)cc(-c2ccc(-c3c(Cc4ccccc4)oc4ccccc34)cc2)cc1Br)C(=O)O (stereo not given) | 75 to 76
Cc1cccc(-c2coc3c(O)c(O)ccc3c2=O)c1 | 268
Cn1ccnc1Sc1c(Cl)cccc1Cl | 113 to 115
c1ccc(Nc2ccc(-c3ccc(N(c4ccccc4)c4ccccc4)cc3)cc2)cc1 | 168
CC(=O)c1sc(N2CCN(Cc3cccc(C(F)(F)F)c3)C2=O)nc1C | 149 to 151
CCc1nnc2ccc(-c3ccc(Cl)cc3)nn12 | 197 to 199
CC1Cc2c(Cl)ccc3c(=O)c(C(=O)O)cn1c23 (stereo not given) | 288 to 290
CC(C)CCn1cc([N+](=O)[O-])cc1C(=O)O | 154 to 157
COc1ccc(Oc2ccc([N+](=O)[O-])cc2)c(Cl)c1Cl | 165 to 166
CCCCCCCCCc1cc(C=CC(=O)N2CCN(c3ccc(NC(=N)c4cccs4)cc3)CC2)cc(CCCCCCCCC)c1O | 103 to 105
CN=CN(C)c1nc(-c2cc(Cl)nc(Cl)c2)cs1 | 145
O=C(NCCC1=CCCCC1)NCCC1=CCCCC1 | 129 to 131
CCCCCCn1c(C)c(C(=O)N(CCCC)CCCC)c2c(CN3CCCCC3)c(O)c(C(=O)CC)cc21 | 124 to 125
Cn1ccnc1COc1ccc(-c2cc(-c3c[nH]nc3-c3ccccn3)ccn2)cc1 | 112
CN1C(=O)C2CC2(c2ccc(N)cc2)C1=O (stereo not given) | 137 to 139
ClCCN(CCCl)CCOc1cccc(Nc2c3ccccc3nc3c(OCCN(CCCl)CCCl)cccc23)c1 | 108 to 109
CCCCCCCCCCCCOc1ccc(C2SCCCS2)cc1OCCCCCCCCCCCC | 73 to 75
O=[N+]([O-])c1cc(I)cc(CO)c1 | 85.5 to 86.5
COc1cccc2oc(-c3ccc(F)cc3)cc(=O)c12 | 178
CN(C)Cc1c(-c2ccccn2)[nH]c2ncnc(Nc3cccc(Cl)c3)c12 | 247 to 251
O=C1c2c(-c3ccccc3)noc2CCC1CN1CCOCC1 (stereo not given) | 140 to 141
